In US3984393A, “Aminoglycoside antibiotics” (The Upjohn Company, priority 1975, dated 1976):
≈ marks a conversion by molar mass, not a printed value. Read-outs that look alike come from different tables or passages of the source.

Legend:
S. flexneri UC 143 = assay: standard microplate test in BHI Agar (MIC), S. flexneri UC 143; type: cell-based; settings: Shigella flexneri, UC143, 20 h, retest table, group (9), (11), (7α), neamine control, read-out: Minimum Inhibitory Concentration
Protocol: (§1) Compounds were also tested in a standard microplate test in Brain Heart Infusion (BHI) Agar, at a concentration of 1 mg/ml. Incubation is at 37° and end points are read at 20 hours. Brain Heart Infusion Agar (supplied by Difco Laboratories, Detroit, Michigan, U.S.A.) has the following composition:
(§2) Compounds (7β), (7α) and (9) were tested again along with compounds (11) and (14β) against a neamine control using the same conditions as given above.

D. pneumoniae UC 41 = assay: standard microplate test in BHI Agar (MIC), D. pneumoniae UC 41; type: cell-based; settings: Streptococcus pneumoniae, UC41, 20 h
Protocol: as §1, §2

S. schottmuelleri UC 126 = assay: standard microplate test in BHI Agar (MIC), S. schottmuelleri UC 126; type: cell-based; settings: 20 h, read-out: Minimum Inhibitory Concentration
Protocol: as §1, §2

K. pneumoniae UC 58 = assay: standard microplate test in BHI Agar (MIC), K. pneumoniae UC 58; type: cell-based; settings: Klebsiella pneumoniae, UC58, 20 h
Protocol: as §1, §2

P. vulgaris UC 93 = assay: standard microplate test in BHI Agar (MIC), P. vulgaris UC 93; type: cell-based; settings: Proteus vulgaris, UC93, 20 h
Protocol: as §1, §2

S. aureus UC 570 = assay: standard microplate test in BHI Agar (MIC), S. aureus UC 570; type: cell-based; settings: Staphylococcus aureus, UC570, 20 h, 37°, first table, read-out: Minimum Inhibitory Concentration
Protocol: (§3) Compounds were also tested in a standard microplate test in Brain Heart Infusion (BHI) Agar, at a concentration of 1 mg/ml. Incubation is at 37° and end points are read at 20 hours. Brain Heart Infusion Agar (supplied by Difco Laboratories, Detroit, Michigan, U.S.A.) has the following composition: […]

S. hemolyticus UC 152 = assay: standard microplate test in BHI Agar (MIC), S. hemolyticus UC 152; type: cell-based, Streptococcus hemolyticus; settings: for MIC: Streptococcus pyogenes
Protocol: as §1, §2

P. mirabilis A-63 = assay: standard microplate test in BHI Agar (MIC), P. mirabilis A-63; type: cell-based; settings: Proteus mirabilis, A63, 20 h; P. mirabilis A-63; retest table, group (9), (11), (7α), neamine control; read-out: Minimum Inhibitory Concentration
Protocol: as §1, §2

Ps. aeruginosa UC 95 = assay: standard microplate test in BHI Agar (MIC), Ps. aeruginosa UC 95; type: cell-based; settings: Pseudomonas aeruginosa, UC95, 20 h, Ps. aeruginosa UC 95, read-out: Minimum Inhibitory Concentration
Protocol: as §1, §2

St. faecalis UC 694 = assay: standard microplate test in BHI Agar (MIC), St. faecalis UC 694; type: cell-based; settings: Enterococcus faecalis, UC694, 20 h, read-out: Minimum Inhibitory Concentration
Protocol: as §1, §2

B. subtilis = assay: standard disc plate assay, 12.5 mm paper discs (zone of inhibition), B. subtilis; type: cell-based, Bacillus subtilis; settings: for zone of inhibition at 5000 µg/mL / zone of inhibition at 10000 µg/mL: Bacillus subtilis, B. subtilis; for zone of inhibition at 5000 µg/mL: 5 mg/ml; for zone of inhibition at 10000 µg/mL: 10 mg/ml; for active against Bacillus subtilis: conclusion in words from the above results
Source text: (§4) The novel intermediates, disclosed herein, are useful to make novel aminoglycoside antibiotics. These novel aminoglycoside antibiotics are antibacterially active, and, thus, they can be used in various environments to eradicate or control sensitive bacteria. Following are in vitro antibacterial test results for representative compounds of the subject invention. The results were obtained with a standard disc plate assay using 12.5 mm paper discs.

P. rettgeri UC 339 = assay: standard microplate test in BHI Agar (MIC), P. rettgeri UC 339; type: cell-based; settings: Providencia rettgeri, UC339, 20 h; P. rettgeri UC 339; retest table, group (9), (11), (7α), neamine control; read-out: Minimum Inhibitory Concentration
Protocol: as §1, §2

P. morgani UC 3186 = assay: standard microplate test in BHI Agar (MIC), P. morgani UC 3186; type: cell-based; settings: 20 h, retest table, group (9), (11), (7α), neamine control
Protocol: as §1, §2

S. typhi TG-3 = assay: standard microplate test in BHI Agar (MIC), S. typhi TG-3; type: cell-based; settings: Salmonella enterica, 20 h, read-out: Minimum Inhibitory Concentration
Protocol: as §1, §2

S. aureus UC 746 = assay: standard microplate test in BHI Agar (MIC), S. aureus UC 746; type: cell-based; settings: Staphylococcus aureus, UC746, 37°, 20 h, first table, read-out: Minimum Inhibitory Concentration
Protocol: as §3

E. coli UC 45 = assay: standard microplate test in BHI Agar (MIC), E. coli UC 45; type: cell-based; settings: Escherichia coli, UC45, 20 h
Protocol: as §1, §2

S. aureus UC 76 = assay: standard microplate test in BHI Agar (MIC), S. aureus UC 76; type: cell-based, Staphylococcus aureus; settings: for MIC: Staphylococcus aureus, UC76, 20 h
Protocol: as §1, §2

B. cereus = assay: standard disc plate assay, 12.5 mm paper discs (zone of inhibition), B. cereus; type: cell-based, Bacillus cereus; settings: for zone of inhibition at 5000 µg/mL / zone of inhibition at 10000 µg/mL: Bacillus cereus, B. cereus; for zone of inhibition at 5000 µg/mL: 5 mg/ml; for zone of inhibition at 10000 µg/mL: 10 mg/ml; for active against Bacillus cereus: conclusion in words from the above results
Source text: as §4

S. marcescens UC 131 = assay: standard microplate test in BHI Agar (MIC), S. marcescens UC 131; type: cell-based; settings: Serratia marcescens, UC131, 20 h; S. marcescens UC 131; retest table, group (9), (11), (7α), neamine control; read-out: Minimum Inhibitory Concentration
Protocol: as §1, §2

[1] = D. pneumoniae UC 41, BHI agar, 37°, 20 h, first table, read-out: Minimum Inhibitory Concentration
[2] = retest table, group (9), (11), (7α), neamine control
[3] = read-out: Minimum Inhibitory Concentration, K. pneumoniae UC 58, BHI agar, 37°, 20 h, first table
[4] = K. pneumoniae UC 58, retest table, group (9), (11), (7α), neamine control, read-out: Minimum Inhibitory Concentration
[5] = P. vulgaris UC 93, BHI agar, 37°, 20 h, first table, read-out: Minimum Inhibitory Concentration
[6] = BHI agar, 37°, 20 h, first table
[7] = S. faecalis UC 694, retest table, group (9), (11), (7α), neamine control
[8] = St. faecalis UC 694, BHI agar, 37°, 20 h, first table
[9] = E. coli UC 45, BHI agar, 37°, 20 h, first table, read-out: Minimum Inhibitory Concentration

For `CC1(O[C@@H]2[C@@H](O)[C@H](O[C@H]3O[C@H](CN)[C@@H](O)[C@H](O)[C@H]3N)[C@@H](N)C[C@H]2N)O[C@H]2O[C@H](CO)[C@@H](O)[C@H]2O1` (stereo partly drawn) [Compound (9)], the MIC (S. flexneri UC 143) was 500 µg/mL (≈ 1010 µM), the MIC (D. pneumoniae UC 41; [1]) was greater than 1000 µg/mL and the MIC (D. pneumoniae UC 41; D. pneumoniae UC 41, retest table, group (9), (11), (7α), neamine control, read-out: Minimum Inhibitory Concentration) was 125 µg/mL (≈ 252 µM). It also gave an MIC (S. schottmuelleri UC 126; BHI agar, 37°, first table) of 250 µg/mL (≈ 504 µM), an MIC (S. schottmuelleri UC 126; [2]) of 62.5 µg/mL (≈ 126 µM) and an MIC (K. pneumoniae UC 58; [3]) of 62.5 µg/mL (≈ 126 µM). For the same compound, the MIC (K. pneumoniae UC 58; [4]) was 31.2 µg/mL (≈ 62.8 µM), the MIC (P. vulgaris UC 93; [5]) was 500 µg/mL (≈ 1010 µM) and the MIC (P. vulgaris UC 93; P. vulgaris UC 93, retest table, group (9), (11), (7α), neamine control, read-out: Minimum Inhibitory Concentration) was 125 µg/mL (≈ 252 µM). For the same compound, the MIC (S. aureus UC 570) was 250 µg/mL (≈ 504 µM), the “Minimum Inhibitory Concentration” value (S. hemolyticus UC 152; S. hemolyticus UC 152, retest table, group (9), (11), (7α), neamine control) was 3.9 µg/mL and the MIC (S. hemolyticus UC 152; UC152, S. hemolyticus UC 152, BHI agar, 37°, 20 h, first table, read-out: Minimum Inhibitory Concentration) was 3.9 µg/mL (≈ 7.85 µM). The MIC (P. mirabilis A-63) was 500 µg/mL (≈ 1010 µM), the MIC (Ps. aeruginosa UC 95; [6]) was greater than 1000 µg/mL and the MIC (Ps. aeruginosa UC 95; [2]) was 1000 µg/mL (≈ 2010 µM). It also gave an MIC (St. faecalis UC 694; [7]) of 1000 µg/mL (≈ 2010 µM), an MIC (St. faecalis UC 694; [8]) greater than 1000 µg/mL and a zone of inhibition at 5000 µg/mL (B. subtilis) of 32 mm. For the same compound, the zone of inhibition at 10000 µg/mL (B. subtilis) was 34 mm, the “active against Bacillus subtilis” value (B. subtilis) was “active” and the MIC (P. rettgeri UC 339) was 1000 µg/mL (≈ 2010 µM). It also gave an MIC (P. morgani UC 3186; P. morgani UC 3186, read-out: Minimum Inhibitory Concentration) of 125 µg/mL (≈ 252 µM), an MIC (S. typhi TG-3) of 250 µg/mL (≈ 504 µM) and an MIC (S. aureus UC 746) of 250 µg/mL (≈ 504 µM). For the same compound, the MIC (E. coli UC 45; [9]) was 250 µg/mL (≈ 504 µM), the MIC (E. coli UC 45; E. coli UC 45, retest table, group (9), (11), (7α), neamine control, read-out: Minimum Inhibitory Concentration) was 250 µg/mL (≈ 504 µM) and the MIC (S. aureus UC 76; S. aureus UC 76, retest table, group (9), (11), (7α), neamine control, read-out: Minimum Inhibitory Concentration) was 125 µg/mL (≈ 252 µM). For the same compound, the “active against Staphylococcus aureus” value (S. aureus UC 76; conclusion in words from the above results) was “active”, the zone of inhibition at 5000 µg/mL (B. cereus) was 29 mm and the zone of inhibition at 10000 µg/mL (B. cereus) was 34 mm. For the same compound, the “active against Bacillus cereus” value (B. cereus) was “active” and the MIC (S. marcescens UC 131) was 500 µg/mL (≈ 1010 µM).
Work on `NC[C@H]1O[C@H](O[C@H]2[C@H](O)[C@@H](O[C@H]3O[C@H](CO)[C@@H](O)[C@H]3O)[C@H](N)C[C@@H]2N)[C@H](N)[C@@H](O)[C@@H]1O` [(7α), 6-O-(α-D-Ribofuranosyl)neamine] yielded an MIC (S. flexneri UC 143) of 125 µg/mL (≈ 275 µM), an MIC (D. pneumoniae UC 41; [1]) greater than 1000 µg/mL and an MIC (D. pneumoniae UC 41; read-out: Minimum Inhibitory Concentration, D. pneumoniae UC 41, retest table, group (9), (11), (7α), neamine control) of 125 µg/mL (≈ 275 µM). The MIC (S. schottmuelleri UC 126; BHI agar, 37°, first table) was 500 µg/mL (≈ 1100 µM), the MIC (K. pneumoniae UC 58; [3]) was 62.5 µg/mL (≈ 138 µM) and the MIC (K. pneumoniae UC 58; [4]) was 7.8 µg/mL (≈ 17.2 µM). The MIC (P. vulgaris UC 93; [5]) was 1000 µg/mL (≈ 2200 µM), the MIC (P. vulgaris UC 93; read-out: Minimum Inhibitory Concentration, P. vulgaris UC 93, retest table, group (9), (11), (7α), neamine control) was 125 µg/mL (≈ 275 µM) and the MIC (S. aureus UC 570) was 500 µg/mL (≈ 1100 µM). The MIC (S. hemolyticus UC 152; UC152, 20 h, read-out: Minimum Inhibitory Concentration, S. hemolyticus UC 152, BHI agar, 37°, 20 h, first table) was 31.2 µg/mL (≈ 68.7 µM), the MIC (S. hemolyticus UC 152; UC152, 20 h, S. hemolyticus UC 152, retest table, group (9), (11), (7α), neamine control, read-out: Minimum Inhibitory Concentration) was 7.8 µg/mL (≈ 17.2 µM) and the MIC (P. mirabilis A-63) was 500 µg/mL (≈ 1100 µM). The MIC (Ps. aeruginosa UC 95; [6]) was greater than 1000 µg/mL, the MIC (Ps. aeruginosa UC 95; [2]) was 1000 µg/mL (≈ 2200 µM) and the MIC (St. faecalis UC 694; [7]) was 1000 µg/mL (≈ 2200 µM). The MIC (St. faecalis UC 694; [8]) was greater than 1000 µg/mL, the zone of inhibition at 5000 µg/mL (B. subtilis) was 32 mm and the zone of inhibition at 10000 µg/mL (B. subtilis) was 34 mm. For the same compound, the “active against Bacillus subtilis” value (B. subtilis) was “active”, the MIC (P. rettgeri UC 339) was 1000 µg/mL (≈ 2200 µM) and the MIC (P. morgani UC 3186; read-out: Minimum Inhibitory Concentration, P. morgani UC 3186) was 125 µg/mL (≈ 275 µM). It also gave an MIC (S. typhi TG-3) of 62.5 µg/mL (≈ 138 µM), an MIC (S. aureus UC 746) of 1000 µg/mL (≈ 2200 µM) and an MIC (E. coli UC 45; [9]) of 500 µg/mL (≈ 1100 µM). The MIC (E. coli UC 45; read-out: Minimum Inhibitory Concentration, E. coli UC 45, retest table, group (9), (11), (7α), neamine control) was 62.5 µg/mL (≈ 138 µM), the MIC (S. aureus UC 76; S. aureus 284 UC 76, BHI agar, 37°, 20 h, first table, read-out: Minimum Inhibitory Concentration) was 1000 µg/mL (≈ 2200 µM) and the MIC (S. aureus UC 76; read-out: Minimum Inhibitory Concentration, S. aureus UC 76, retest table, group (9), (11), (7α), neamine control) was 62.5 µg/mL (≈ 138 µM). The zone of inhibition at 5000 µg/mL (B. cereus) was 25 mm, the zone of inhibition at 10000 µg/mL (B. cereus) was 32 mm and the “active against Bacillus cereus” value (B. cereus) was “active”. The MIC (S. marcescens UC 131) was 250 µg/mL (≈ 550 µM).
